Source: paper PMC10053770, “Assessment of the Pharmacokinetics, Disposition, and Duration of Action of the Tumour-Targeting Peptide CEND-1” (International Journal of Molecular Sciences, 2023)

Experiments:
[1] = Single-dose intravenous pharmacokinetics in mice; assay type: in vivo, mouse; conditions: for clearance: read-out: Cl_obs (converted); for Vd: read-out: V
Protocol: (§1) The in vivo pharmacokinetic profile of CEND-1 after a single dose was evaluated in four non-GLP animal studies including Sprague-Dawley rats, Beagle dogs, cynomolgus monkeys and BALB/c mice following the intravenous injection of CEND-1 at various doses (1, 5 and 50 mg/kg for rats, dogs and monkeys; 1.5, 4.5 and 13.5 mg/kg for mice) (Table 1). Blood samples were collected for pharmacokinetic evaluations pre-dose and at 1, 5, 10, 15 and 30 min, and 1, 2 and 6 h post-dose in rats, dogs and monkeys, and 3, 10, 30 and 90 min, and 4 and 8 h post-dose in mice.
(§2) Plasma CEND-1 was quantified by validated liquid chromatography coupled with a tandem mass spectrometry (LC/MS/MS) assay. Tolbutamide or leuprorelin acetate were used as internal standards. AB Sciex Triple Quad API 5500 (Sciex, Framingham, MA, USA), operated in the positive electrospray ionization (ESI) mode, was used to monitor the precursor to production ion transitions of m/z 495.4→69.9.
(§3) No formal sample size calculation was performed. Samples of 2–12 animals and 31 pancreatic cancer patients were considered acceptable to perform initial pharmacokinetic evaluations. The concentrations of CEND-1 were used to calculate PK parameters by employing a non-compartmental analysis (Phoenix^TM WinNonlin, version 6.1). The linear log trapezoidal algorithm, with a weighting of 1/Y*Y was used for parameter calculations. Mean PK parameters were calculated from individual animals in each treatment group. Concentrations below the LLOQ (if any) were excluded for the calculation of PK parameters. The mean values of PK parameters were calculated using Microsoft Excel version 2010.

[2] = Single-dose intravenous pharmacokinetics in dogs; assay type: in vivo, dog; conditions: for clearance: read-out: Cl_obs (converted); for Vd: read-out: V
Protocol: as §1, with “([…];” for “(1, 5 and 50 mg/kg for rats, dogs and monkeys;”
as §2, §3

[3] = Detailed clinical and cage-side observations in pre-clinical species; assay type: in vivo, mice, rats, dogs and monkeys; conditions: any of the pre-clinical species tested, single IV dose
[4] = design: method as in PMID 35803294; conditions: phase I trial, monotherapy and in combination with chemotherapy drugs; cited from earlier work
[5] = male, BALB/c mouse, M, n=3, 1.5 mg/kg single IV, plasma LC/MS/MS, non-compartmental, one time point per animal
[6] = male, BALB/c mouse, M, n=3, 4.5 mg/kg single IV, plasma LC/MS/MS, non-compartmental, one time point per animal
[7] = male, BALB/c mouse, M, n=3, 13.5 mg/kg single IV, plasma LC/MS/MS, non-compartmental, one time point per animal
[8] = Beagle dog, F, n=3, 5 mg/kg single IV, plasma LC/MS/MS, non-compartmental, mean (SD)
[9] = Beagle dog, F, n=5, 75 mg/kg single IV, plasma LC/MS/MS, non-compartmental, mean (SD)
[10] = female, Beagle dog, F, n=3, 1 mg/kg single IV, plasma LC/MS/MS, non-compartmental, mean (SD)
[11] = female, Beagle dog, F, n=5, 75 mg/kg single IV, plasma LC/MS/MS, non-compartmental, mean (SD)
[12] = male, Beagle dog, M, n=3, 1 mg/kg single IV, plasma LC/MS/MS, non-compartmental, mean (SD)
[13] = male, Beagle dog, M, n=3, 5 mg/kg single IV, plasma LC/MS/MS, non-compartmental, mean (SD)
[14] = male, Beagle dog, M, n=5, 75 mg/kg single IV, plasma LC/MS/MS, non-compartmental, mean (SD)

CC(=O)N[C@H]1CSSC[C@@H](C(N)=O)NC(=O)[C@H](CC(=O)O)NC(=O)[C@@H]2CCCN2C(=O)CNC(=O)[C@H](CCCCN)NC(=O)[C@H](CC(=O)O)NC(=O)CNC(=O)[C@H](CCCNC(=N)N)NC1=O [CEND-1]
half-life ([1]; BALB/c, mouse, plasma, iv, mice, single intravenous dose, read-out: average plasma half-life): ~25 min | C0 ([1]; BALB/c, plasma, iv, mouse, dose level of 4–5 mg/kg, read-out: Cmax (C0)): ~40000 ng/mL | half-life ([1]; male, BALB/c, mouse, plasma, iv, 1.5 mg/kg, BALB/c mouse, M, n=3, 1.5 mg/kg single IV, plasma LC/MS/MS, non-compartmental, one time point per animal, read-out: t1/2 (converted)): 18.4 min | half-life ([1]; male, BALB/c, mouse, plasma, iv, 4.5 mg/kg, BALB/c mouse, M, n=3, 4.5 mg/kg single IV, plasma LC/MS/MS, non-compartmental, one time point per animal, read-out: t1/2 (converted)): 20.6 min | half-life ([1]; male, BALB/c, mouse, plasma, iv, 13.5 mg/kg, BALB/c mouse, M, n=3, 13.5 mg/kg single IV, plasma LC/MS/MS, non-compartmental, one time point per animal, read-out: t1/2 (converted)): 32.8 min | AUC(0-inf) [1, 5]: 1480 ng·h/mL | C0 ([1]; male, BALB/c mouse, M, n=3, 1.5 mg/kg single IV, plasma LC/MS/MS, non-compartmental, one time point per animal, read-out: C0): 10300 ng/mL | clearance [1, 5]: 16.9 mL/min/kg | Vd [1, 5]: 0.449 L/kg | AUC(0-inf) [1, 6]: 3700 ng·h/mL | C0 ([1]; male, BALB/c mouse, M, n=3, 4.5 mg/kg single IV, plasma LC/MS/MS, non-compartmental, one time point per animal, read-out: C0): 40300 ng/mL | clearance [1, 6]: 20.1 mL/min/kg | Vd [1, 6]: 0.599 L/kg | AUC(0-inf) [1, 7]: 10600 ng·h/mL | C0 ([1]; male, BALB/c mouse, M, n=3, 13.5 mg/kg single IV, plasma LC/MS/MS, non-compartmental, one time point per animal, read-out: C0): 68400 ng/mL | clearance [1, 7]: 21.3 mL/min/kg | Vd [1, 7]: 1.01 L/kg | t1/2 ([2]; Beagle dog, F, n=3, 1 mg/kg single IV, plasma LC/MS/MS, non-compartmental, mean (SD)): 0.668 (0.0312) h | AUC(0-inf) [2, 8]: 20,443 (2530) h*ng/mL | Cl_obs [2, 8]: 247 (32.9) mL/hr/kg | V [2, 8]: 230 (14.6) mL/kg | t1/2 [2, 8]: 0.648 (0.0486) h | AUC(0-inf) [2, 9]: 323,936 (25,283) h*ng/mL | t1/2 [2, 9]: 0.620 (0.0439) h | half-life ([2]; Beagle, dog, plasma, dogs, single intravenous dose, read-out: average half-life): ~40 min | C0 [2, 10]: 4780 ng/mL | AUC(0-inf) ([2]; female, Beagle dog, F, n=3, 1 mg/kg single IV, plasma LC/MS/MS, non-compartmental, mean (SD), read-out: AUC0-inf): 3950 ng·h/mL | clearance [2, 10]: 4.25 mL/min/kg | Vd [2, 10]: 0.253 L/kg | C0 ([2]; female, Beagle dog, F, n=3, 5 mg/kg single IV, plasma LC/MS/MS, non-compartmental, mean (SD)): 25100 ng/mL | C0 [2, 11]: 476000 ng/mL | clearance [2, 11]: 3.88 mL/min/kg | Vd [2, 11]: 0.208 L/kg | C0 [2, 12]: 6010 ng/mL | AUC(0-inf) ([2]; male, Beagle dog, M, n=3, 1 mg/kg single IV, plasma LC/MS/MS, non-compartmental, mean (SD), read-out: AUC0-inf): 4030 ng·h/mL | clearance [2, 12]: 4.22 mL/min/kg | Vd [2, 12]: 0.241 L/kg | half-life ([2]; male, Beagle dog, M, n=3, 1 mg/kg single IV, plasma LC/MS/MS, non-compartmental, mean (SD), read-out: t1/2 (converted)): 39.9 min | C0 [2, 13]: 30200 ng/mL | AUC(0-inf) ([2]; male, Beagle dog, M, n=3, 5 mg/kg single IV, plasma LC/MS/MS, non-compartmental, mean (SD), read-out: AUC0-inf): 20600 ng·h/mL | clearance [2, 13]: 4.05 mL/min/kg | Vd [2, 13]: 0.23 L/kg | half-life ([2]; male, Beagle dog, M, n=3, 5 mg/kg single IV, plasma LC/MS/MS, non-compartmental, mean (SD), read-out: t1/2 (converted)): 39.3 min | C0 [2, 14]: 461000 ng/mL | AUC(0-inf) ([2]; male, Beagle dog, M, n=5, 75 mg/kg single IV, plasma LC/MS/MS, non-compartmental, mean (SD), read-out: AUC0-inf): 327000 ng·h/mL | clearance [2, 14]: 3.83 mL/min/kg | Vd [2, 14]: 0.204 L/kg | half-life ([2]; male, Beagle dog, M, n=5, 75 mg/kg single IV, plasma LC/MS/MS, non-compartmental, mean (SD), read-out: t1/2 (converted)): 36.9 min | detailed clinical observations and cage-side observations [3]: no test-article-related abnormalities | safety profile [4]: acceptable safety profile
